In PMC12246421 (NPJ Precision Oncology, 2025):

Biological target: METTL21A (Methyltransferase 21A) (Homo sapiens, UniProt Q8WXB1)
Test: SPR
Assay type: binding

Chain of METTL21A (Methyltransferase 21A) (Q8WXB1 whole entry): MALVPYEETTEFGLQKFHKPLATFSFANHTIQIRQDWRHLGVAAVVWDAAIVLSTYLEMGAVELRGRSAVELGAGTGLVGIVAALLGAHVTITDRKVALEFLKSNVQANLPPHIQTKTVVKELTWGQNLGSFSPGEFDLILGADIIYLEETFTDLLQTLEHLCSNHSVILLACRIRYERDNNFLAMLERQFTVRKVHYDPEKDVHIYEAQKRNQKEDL

Structure (SMILES): O=c1c(-c2ccc(O[C@@H]3O[C@H](CO)[C@@H](O)[C@H](O)[C@H]3O)cc2)coc2cc(O)cc(O)c12 [Sop, sophoricoside]
- Kd: 122 µM
